Test results: patent US20130259944A1, “METHODS AND COMPOSITIONS FOR TREATING CANCER WITH PLATINUM PARTICLES” (EMORY UNIVERSITY, priority 2012, published 2013)

Columns and labels:
[1] = Biodistribution of Pt in organs and tumor of H292 tumor-bearing mice; format: in vivo, nude mice
Protocol: (§1) Blood, organs (liver, spleen, kidney, and lung), and tumor tissue were harvested, half of the organs were dissolved in 65% (v/v) nitric acid at 75° C. for 2 h, and Pt concentrations were measured by ICP-MS. The blood and other half of the organs were used to extract DNA, and the Pt concentration in DNA was quantified as described above.

[2] = test system: H520 cells (EGFR-negative NSCLC); assay: Intracellular platinum accumulation in H520 cells (ICP-MS); format: cell-based, human; conditions: 24 h
Protocol: (§2) EGFR-negative H520 cells were used as negative control. […] The cell pellet was digested in 65% (v/v) nitric acid at 75° C. for 2 h. The Pt content was analyzed by ICP-MS. Cellular Pt levels were expressed in ng Pt/10^6 cells. To further check the targeting specificity of EHDDP nanoparticles in vitro, EGFR was knocked down by EGFR small interfering RNAs (siRNA). H292 cells were transfected with EGFR siRNA (sc-29301 from Santa Cruz Bio) (100 pmol) or scrambled siRNA (sc-37007 from Santa Cruz Bio) (100 pmol) as a nonspecific control according to the manufacturer's protocols. Briefly, in a 6-well tissue culture plate, 2×10^5 cells per well were seeded in 2 mL of antibiotic-free RPMI 1640 medium supplemented with 10% FBS and, on the following day, transfected with siRNAs at the final concentration of 100 pmol. […] Mouse anti-β-actin antibody (Trevigen, Gaithersburg, Md.) was used as a sample loading control. Immunostained protein bands were detected with an enhanced chemiluminescence kit (Thermo Scientific, Rockfield, Ill.). […] The data are shown as mean±SD (n=3). DDP-DNA adduct formation was measured using 1×10^7 cells per condition. […] In addition, the expression level of the phosphorylation of H2A.X was detected by Western Blot as described above using the Phospho-Histone H2A.X (Ser139) (20E3) rabbit mAb (Cell Signaling Technology, Inc.).

[3] = test system: H292 cells; assay: Pt-DNA adduct formation in vitro (ICP-MS of purified DNA); format: cell-based, human; conditions: 37° C., 24 h
Protocol: as §2

[4] = Concentration profile of Pt in mice peripheral blood; format: in vivo, nude mice; conditions: for Pt concentration in blood: Pt 2.5 mg/kg
Protocol: The whole blood samples were dissolved in 65% (v/v) nitric acid at 75° C. for 2 h, and Pt concentration was measured by ICP-MS.

[5] = test system: H292 cells; assay: SRB cytotoxicity assay; format: cell-based, human; conditions: 96 h
Protocol: H292 and H520 cells maintained in medium with 2% FBS were seeded in 96-well plates at a density of 5000 cells/well overnight prior to drug treatment. […] Cells were fixed for 1 h with 10% cold trichloroacetic acid. Plates were washed five times in water, air-dried, and then stained with 0.4% SRB for 10 min. […] Plates were read in a microplate reader by measuring absorbance at 492 nm. The percent survival was then calculated based upon the absorbance values relative to untreated samples. The experiment was repeated three times.

[6] = test system: H292 cells (EGFR-positive NSCLC); assay: Intracellular platinum accumulation in H292 cells (ICP-MS); format: cell-based, human; conditions: 0.4 μg/mL, 24 h
Protocol: as §2

[7] = Pt-DNA adducts in kidney and tumor in vivo; set-up: species or system nude mice; conditions: single iv dose Pt 2.5 mg/kg
Protocol: as §1

## N.N.[Cl][Pt][Cl] [DDP, cis-diamminedichloroplatinum(II)]
[1]; 10 min after iv injection
  tumor Pt level: 3.58±0.91 ng/mg dry tissue
[1]; 10 min after systemic administration
  Pt concentration in kidney: 35.25±5.70 ng/mg dry tissue
[1]; 4 h
  Pt concentration in kidney: 11.9±0.79 ng/mg dry tissue
[1]; 4 h, single iv dose Pt 2.5 mg/kg
  accumulation of Pt in the liver: 7.71±1.61 ng/mg dry tissue
[1]; 24 h
  Pt concentration in kidney: 6.39±0.67 ng/mg dry tissue
[1]; 24 h after iv injection
  tumor Pt level: 1.48±0.52 ng/mg dry tissue
[1]; 24 h compared with 4 h
  decrease of Pt concentration in the liver: 20%
[1]; 28 days after treatment
  Pt concentrations in the liver, spleen and kidney, comparison between treatments: no differences
[1]; from 10 min to 4 h
  decrease of Pt accumulation in the liver: 42.5%
  decrease of Pt accumulation in the spleen: 82.86%
[1]; within 4 h
  decrease in Pt accumulation in the kidney: 65.1%
[2]
  intracellular Pt accumulation: 3.38±0.42 ng Pt/10^6 cells
[3]
  Pt level associated with cellular DNA (Pt-DNA adducts): 19.68±4.35 pg Pt/μg DNA
[4]; 30 min after iv injection
  Pt concentration in blood: 1.17±0.12 ng/mg blood
[4]; 8 h after iv injection
  Pt concentration in blood: 0.36±0.09 ng/mg blood
[4]; discussion statement
  time of elimination by the renal system: < 5 min
[5]
  IC50 (Pt concentration): 2.12 ± 0.20 µg/mL
[6]
  intracellular Pt level: 2.49±0.39 ng Pt/10^6 cells
[7]; 4 h
  Pt concentration in DNA purified from kidney: 71.78±9.02 pg/μg DNA
  Pt-DNA adducts in NSCLC xenograft tumors: 92.21±8.96 pg/μg DNA
[7]; 24 h
  Pt concentration in DNA purified from kidney: 25.72±2.78 pg/μg DNA
  Pt-DNA adducts in NSCLC xenograft tumors: 94.68±15.01 pg/μg DNA
